# Measured values published in patent US20220195059A1, “Rank Pathway Inhibitors in Combination with CDK Inhibitors” (INSTITUTO DE MEDICINA MOLECULAR JOÃO LOBO ANTUNES, priority 2019, published 2022).
# Legend:
# Assay type in all cases: cell-based, human
# [1] = tested on: RANK OE cells (MCF-7^OE, T47D^OE) and parental MCF-7, T47D cells; experiment: Alamar blue viability assay, RANK OE luminal breast cancer cells vs parental counterparts; conditions: for sensitivity of RANK OE cells to the drug (cell viability): RANK OE cells vs parental counterparts, drug alone
# Description: (§1) Cells were seeded in 96 well-plates (2-5×10^4 cells/mL), with or without paclitaxel (Y0000698, Sigma), doxorubicin hydrochloride (D2975000, Sigma), palbociclib (PD 0332991 isethionate, PZ0199, Sigma), ribociclib (LEE011 succinate, SC-488174, Santa Cruz), abemaciclib mesylate (LY2835219, S7158, Selleckchem), fulvestrant (S1191, Selleckchem), everolimus (#73122, StemCell Technologies), full length human OPG (SRP3132, Sigma), and OPG-Fc (Amgen). Medium was replaced every 2 days. After 7 days, 1:10 Alamar blue (Invitrogen) was added to each well and fluorescence was measured 2 hours after incubation (excitation 560 nm; emission 590 nm) in an Infinite M200 microplate reader (Tecan).
# In particular, RANK OE cells were tested for responsiveness to hormone therapy. Briefly, RANK OE cells were seeded in multi-well plates and exposed to fulvestrant for 7 days.
# In this assay, however, RANK OE cells were exposed to a CDK 4/6 inhibitor alone or in combination with an inhibitor of the RANK pathway, in order to test the effect of blocking the RANK pathway in this context. Briefly, RANK OE cells were seeded in multi-well plates and exposed to palbociclib, ribociclib or abemaciclib alone or in combination with OPG-Fc for 7 days. Osteoprotegrin (OPG) is the physiologic soluble decoy receptor for RANK ligand (RANKL), and OPG-Fc is a fusion protein comprising only the four cysteine-rich domains of OPG (D1 to D4) fused with the Fc domain of an IgG1 antibody.
# In this study, the CDK4/6 inhibitors palbociclib and ribociclib were exposed to RANK OE cells in combination with fulvestrant or everolimus. This combination therapy was then tested alone or in combination with OPG, an inhibitor of the RANK pathway. In this assay, the full-length OPG protein was used, in contrast to the previous example utilizing OPG-Fc.
# To address this question, cell growth in the presence or absence of a CDK4 inhibitor was quantified. Briefly, cells were seeded in 96-well plates and exposed to two different drugs, CDK4 inhibitors, 3-ATA (FIG. 20A) or Cdk4 inhibitor Ill (FIG. 20B) for seven days. Medium was replaced every two days, and viability was assessed by Alamar blue assay. FIG. 20A provides the cell growth quantification in the presence of the CDK4 inhibitor 3-ATA and FIG. 20B provides the cell growth quantification in the presence of another CDK4 inhibitor, Cdk4 Inhibitor Ill. The results are the mean of at least three independent assays, with 4 replicates per assay, and presented as the mean±SEM. p-value was calculated using 2-way ANOVA, *p<0.05, **p<0.01, ***p<0.001.
# To answer this question, cell growth in the presence of the pan-CDK inhibitor seliciclib (also known as roscovitine or CYC202) was analyzed. Briefly, cells were seeded in 96-well plates and exposed to different drugs for seven days. Medium was replaced every two days, and viability was assessed by Alamar blue assay.
# (§2) Cells were seeded in 96 well-plates (2-5×10^4 cells/mL), with or without palbociclib (PD 0332991 isethionate, PZ0199, Sigma), ribociclib (LEE011 succinate, SC-488174, Santa Cruz), abemaciclib mesylate (LY2835219, S7158, Selleckchem), 3-ATA (sc-202414, Santa Cruz), Cdk4 inhibitor Ill (sc-202988, Santa Cruz), seliciclib (S1153, Selleckchem), and OPG-Fc (PL-33324, Amgen). Medium was replaced every 2 days. After 7 days, 1:10 Alamar blue (Invitrogen) was added to each well and fluorescence was measured 2 hours after incubation (excitation 560 nm; emission 590 nm) in an Infinite M200 microplate reader (Tecan).
# [2] = tested on: TNBC cells (MDA-MB-231, MDA-MB-436, MDA-MB-468, MDA-MB-157, HCC1937, BT-20); experiment: Alamar blue viability assay, TNBC cell lines with or without OPG-Fc; conditions: 7 days
# Description: as §1
# Medium was replaced every two days, and viability was assessed by Alamar blue assay.
# as §2
# MDA-MB-231 TNBC cells = experiment: Alamar blue viability assay, MDA-MB-231 TNBC cells with or without RANK knockdown; conditions: 7 days
# Description: For lentiviral transduction, MDA-MB-231GFP+Luc+ cells were seeded in 24-well plates, at a density of 4×10^4 cells/well. 24 hours after seeding, medium was replaced by fresh medium containing 8 μg/ml Polybrene (Sigma) and RANK shRNA (h) lentiviral particles (15-20 μl/well; sc-42960-V, Santa Cruz) or control shRNA lentiviral particles (15-20 μl/well; sc-108080, Santa Cruz). Cells were selected with 0.5 μg/mL Puromycin dihydrochloride (Sigma) starting three days after transduction.
# as §1
# RANK KD clones were first generated for use in sensitivity assays. Briefly, MCF-7GFP+Luc+ cells were seeded in multi-well plates and then exposed to fresh medium comprising RANK shRNA (h) lentiviral particles or control shRNA lentiviral particles. The transduced cells were selected using Puromycin dihydrochloride starting three days post-transduction.
molecule,measurement,setting,value
"Nc1ccc2c(=S)c3ccccc3[nH]c2c1 [3-ATA, 3-Amino-9-thio(10H)-acridone]",sensitivity of RANK OE cells to the drug (cell viability),[1]; 7 days,resistant
same,resistance of RANK OE cells to doses above 2.5 μM,"[1]; RANK OE cells, 7 days",resistant to even higher doses
"Cc1ccc(NC2=CC(=O)c3sc(C)nc3C2=O)cc1 [Cdk4 inhibitor Ill, 5-(N-(4-Methylphenyl)amino)-2-methyl-4,7-dioxobenzothiazole]",sensitivity of RANK OE cells to the drug (cell viability),[1]; 7 days,resistant
CCN1CCN(Cc2ccc(Nc3ncc(F)c(-c4cc(F)c5nc(C)n(C(C)C)c5c4)n3)nc2)CC1 [abemaciclib],sensitivity of TNBC cells to CDK4/6 inhibitor (cell viability),[2],resistance
same,sensitivity of RANK OE cells to the drug (cell viability),[1]; 7 days,decreased sensitivity
C[C@]12CC[C@@H]3c4ccc(O)cc4C[C@@H](CCCCCCCCC[S+]([O-])CCCC(F)(F)C(F)(F)F)[C@H]3[C@@H]1CC[C@@H]2O (stereo partly shown) [fulvestrant],sensitivity of RANK OE cells to the drug (cell viability),[1]; 7 days,decreased sensitivity
CN(C)C(=O)c1cc2cnc(Nc3ccc(N4CCNCC4)cn3)nc2n1C1CCCC1 [ribociclib],sensitivity to CDK4/6 inhibitor (cell viability),MDA-MB-231 TNBC cells; MDA-231 cells and MDA-231 shControl cells,resistance
same,sensitivity to CDK4/6 inhibitor (cell viability),MDA-MB-231 TNBC cells; TNBC RANK KD cells (MDA-231 shRANK) vs RANK expressing cells,restored sensitivity
same,sensitivity of TNBC cells to CDK4/6 inhibitor (cell viability),[2],resistance
same,sensitivity of RANK OE cells to the drug (cell viability),[1]; 7 days,decreased sensitivity
CC[C@H](CO)Nc1nc(NCc2ccccc2)c2ncn(C(C)C)c2n1 [seliciclib],sensitivity of RANK OE cells to pan-CDK inhibitor,"[1]; RANK OE cells vs parental (RANK low) cells, 7 days",less sensitive
same,"enhancement of the effect of palbociclib, or palbociclib plus OPG-Fc","[1]; RANK OE cells, 7 days",did not enhance
"OPG: full-length OPG protein, soluble decoy receptor for RANK ligand (protein, UniProt O00300 1-401, looked up, full-length, full-length OPG protein, soluble decoy receptor for RANK ligand) MNNLLCCALVFLDISIKWTTQETFPPKYLHYDEETSHQLLCDKCPPGTYLKQHCTAKWKTVCAPCPDHYYTDSWHTSDECLYCSPVCKELQYVKQECNRTHNRVCECKEGRYLEIEFCLKHRSCPPGFGVVQAGTPERNTVCKRCPDGFFSNETSSKAPCRKHTNCSVFGLLLTQKGNATHDNICSGNSESTQKCGIDVTLCEEAFFRFAVPTKFTPNWLSVLVDNLPGTKVNAESVERIKRQHSSQEQTFQLLKLWKHQNKDQDIVKKIIQDIDLCENSVQRHIGHANLTFEQLRSLMESLPGKKVGAEDIEKTIKACKPSDQILKLLSLWRIKNGDQDTLKGLMHALKHSKTYHFPKTVTQSLKKTIRFLHSFTMYKLYQKLFLEMIGNQVQSVKISCL",sensitivity of RANK OE cells to CDK4/6 inhibitor combination therapy when further combined with OPG,[1]; full-length OPG added to palbociclib or ribociclib plus fulvestrant or everolimus,restored
